According to ChEMBL document CHEMBL3779828, “Discovery of the Aryl-phospho-indole IDX899, a Highly Potent Anti-HIV Non-nucleoside Reverse Transcriptase Inhibitor” (J Med Chem, 2016):
≈ marks a conversion by molar mass, not a printed value.

What was measured:
[1] = Antiviral activity against HIV1 BH10 harboring wild type reverse transcriptase infected in primary MT4 cells assessed as inhibition of virus-induced cytopathogenicity after 4 days by MTS assay; assay type: functional, cell-based, Human immunodeficiency virus type 1 BH10; conditions: Human immunodeficiency virus 1, MT4, 96 h
[2] = system: Human immunodeficiency virus 1; test: Antiviral activity against HIV1 harboring reverse transcriptase Y181C mutant infected in primary MT4 cells assessed as inhibition of virus-induced cytopathogenicity after 4 days by MTS assay; assay type: functional, organism-based; conditions: Human immunodeficiency virus 1, MT4, 96 h
[3] = system: Human immunodeficiency virus 1; test: Antiviral activity against HIV1 harboring reverse transcriptase K103N mutant infected in primary MT4 cells assessed as inhibition of virus-induced cytopathogenicity after 4 days by MTS assay; assay type: functional, organism-based; conditions: Human immunodeficiency virus 1, MT4, 96 h
[4] = system: Human immunodeficiency virus 1; test: Antiviral activity against HIV1 harboring reverse transcriptase Y181C/K103N double mutant infected in primary MT4 cells assessed as inhibition of virus-induced cytopathogenicity after 4 days by MTS assay; assay type: functional, organism-based; conditions: Human immunodeficiency virus 1, MT4, 96 h
[5] = Aqueous solubility of the compound at pH 7; assay type: physicochemical; conditions: aqueous medium
[6] = Selectivity ratio of EC50 for HIV1 harboring reverse transcriptase Y181C/K103N double mutant to EC50 for HIV1 BH10 harboring wild type reverse transcriptase; assay type: functional
[7] = Antiviral activity against HIV1 BH10 harboring wild type reverse transcriptase infected in secondary MT4 cells assessed as inhibition of virus-induced cytopathogenicity after 4 days by MTS assay; assay type: functional, cell-based, Human immunodeficiency virus type 1 BH10; conditions: Human immunodeficiency virus 1, MT4, 96 h
[8] = system: Human immunodeficiency virus 1; test: Antiviral activity against HIV1 harboring reverse transcriptase Y181C mutant infected in secondary MT4 cells assessed as inhibition of virus-induced cytopathogenicity after 4 days by MTS assay; assay type: functional, organism-based; conditions: Human immunodeficiency virus 1, MT4, 96 h
[9] = system: Human immunodeficiency virus 1; test: Antiviral activity against HIV1 harboring reverse transcriptase K103N mutant infected in secondary MT4 cells assessed as inhibition of virus-induced cytopathogenicity after 4 days by MTS assay; assay type: functional, organism-based; conditions: Human immunodeficiency virus 1, MT4, 96 h
[10] = system: Human immunodeficiency virus 1; test: Antiviral activity against HIV1 harboring reverse transcriptase Y181C/K103N double mutant infected in secondary MT4 cells assessed as inhibition of virus-induced cytopathogenicity after 4 days by MTS assay; assay type: functional, organism-based; conditions: Human immunodeficiency virus 1, MT4, 96 h

Compound	EC50 [1] [nM]	EC50 [2] [nM]	EC50 [3] [nM]	EC50 [4] [nM]	solubility [5] [µM]	Ratio EC50 [6]	EC50 [7] [nM]	EC50 [8] [nM]	EC50 [9] [nM]	EC50 [10] [nM]
COP(=O)(c1cc(C(F)(F)F)cc(C(F)(F)F)c1)c1c(C(N)=O)[nH]c2ccc(Cl)cc12 (stereo not given)	24.6	527	947	> 1000	–	–	–	–	–	–
COP(=O)(c1cccc2ccccc12)c1c(C(N)=O)[nH]c2ccc(Cl)cc12 (stereo not given)	17.5	357	727	> 1000	–	–	–	–	–	–
COP(=O)(c1cc(C)cc(CCC#N)c1)c1c(C(N)=O)[nH]c2ccc(Cl)cc12 (stereo not given)	0.7	0.7	3.5	28.5	–	–	–	–	–	–
COP(=O)(c1cccc(C(C)C)c1)c1c(C(N)=O)[nH]c2ccc(Cl)cc12 (stereo not given)	0.5	8.4	1.6	92.6	0.8 (≈ 0.313 µg/mL)	–	–	–	–	–
COP(=O)(c1cncc(/C=C/C#N)c1)c1c(C(N)=O)[nH]c2ccc(Cl)cc12 (stereo not given)	1	2.5	9.5	192	–	–	–	–	–	–
COP(=O)(c1cc(C)cc(OCC#N)c1)c1c(C(N)=O)[nH]c2ccc(Cl)cc12 (stereo not given)	0.08	8.7	1.8	111	–	> 1000	–	–	–	–
COP(=O)(c1cc(C)cc(/C=C/C#N)c1)c1c(C(N)=O)[nH]c2ccc(Cl)cc12 (single isomer, unassigned; form 2)	190	377	824	> 1250	–	–	–	–	–	–
COP(=O)(c1cc(F)cc(F)c1)c1c(C(N)=O)[nH]c2ccc(Cl)cc12 (stereo not given)	0.7	6.5	25.5	642	–	–	–	–	–	–
COP(=O)(c1cc(C)cc(C#N)c1)c1c(C(N)=O)[nH]c2ccc(Cl)cc12 (stereo not given)	1	3.8	18.4	162	–	–	–	–	–	–
COP(=O)(c1cc(C)cc(/C=C/C#N)c1)c1c(C(N)=O)[nH]c2ccc(Cl)cc12 (racemic)	2.9	3	3	16.6	–	–	–	–	–	–
COP(=O)(c1c(C(N)=O)[nH]c2ccc(Cl)cc12)C1CCCCC1 (stereo not given)	2.5	219	101	> 1000	–	–	–	–	–	–
COP(=O)(c1cccc(/C=C/C#N)c1)c1c(C(N)=O)[nH]c2ccc(Cl)cc12 (stereo not given)	–	–	–	–	–	–	3.4	3.2	1.8	49.5
